Here are results for twelve molecules from patent publication US20100119599A1 (ARCHER PHARMACEUTICALS, INC., priority 2006, published 2010).

SMILES strings stand for the structures.

In one experiment the test system is Aβ1-42. Briefly: Measurement of Aβ1-42 in culture medium of 7W WT APP751 CHO cells by ELISA. It is filed as cell-based, Chinese hamster. The note with it: for activity at 5 µM: Cricetulus griseus, Table 1, 5 μM test compound, CHO cells stably transfected with human APP751, culture medium, ELISA, control DMSO, 0 = no detectable amount, read-out: Aβ1-42 (% of control). For orientation: An ELISA detects its analyte on a solid surface through an enzyme-linked reagent.

For the next experiment, the system named is Aβ1-40. As to the kind of experiment: Measurement of Aβ1-40 in culture medium of 7W WT APP751 CHO cells by ELISA. It is filed as cell-based, Chinese hamster. Conditions: for activity at 5 µM: Cricetulus griseus, Table 1, 5 μM test compound, CHO cells stably transfected with human APP751, culture medium, ELISA, control DMSO, 0 = no detectable amount.
Setting [1] is: CHO cells that overexpress APP751, zero = below the detection limit of the assay.
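Note: 5 µM test compound but RI-coded compounds at 10 µM for 24 hours.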

Take `CCCCCOC(=O)C1=C(C)NC2=C(C(=O)CC(C)(C)C2)C1c1ccccc1Br` (stereo not drawn) [ST216079, pentyl 4-(2-bromophenyl)-2,7,7-trimethyl-5-oxo-1,4,6,7,8-pentahydroquinoline-3-carboxylate]: the results for the activity at 5 µM in the experiment with Aβ1-42 and in the experiment with Aβ1-40 were 20.5% and 25.8%, respectively.
Turning to `CCCCCOC(=O)C1=C(C)NC2=C(C(=O)CC(C)(C)C2)C1c1ccc([N+](=O)[O-])cc1` (stereo not drawn) [ST216093, pentyl 2,7,7-trimethyl-4-(4-nitrophenyl)-5-oxo-1,4,6,7,8-pentahydroquinoline-3-carboxylate], the activity at 5 µM with Aβ1-42 and in the experiment with Aβ1-40 was 0% in each case.
For `CCCCCOC(=O)C1=C(C)NC2=C(C(=O)CC(C)(C)C2)C1c1cc2c(cc1Br)OCO2` (stereo not drawn) [ST216568, pentyl 4-(6-bromo(2H-benzo[d]1,3-dioxolan-5-yl))-2,7,7-trimethyl-5-oxo-1,4,6,7,8-pentahydroquinoline-3-carboxylate], the values for the activity at 5 µM with Aβ1-42 and in the experiment on Aβ1-40 were 24.7% and 14.8%, respectively.
Taken in the same sequence, the figures for `CCCCCOC(=O)C1=C(C)NC2=C(C(=O)CC(C)(C)C2)C1c1ccc2c(c1)OCO2` (stereo not drawn) [ST216581, pentyl 4-(2H-benzo[3,4-d]1,3-dioxolan-5-yl)-2,7,7-trimethyl-5-oxo-1,4,6,7,8-pentahydroquinoline-3-carboxylate] were 41.6% and 28.6%.
Taken in the same sequence, the figures for `CCCCCOC(=O)C1=C(C)NC2=C(C(=O)CC(C)(C)C2)C1c1ccc(C)cc1` (stereo not drawn) [ST216602, pentyl 2,7,7-trimethyl-4-(4-methylphenyl)-5-oxo-1,4,6,7,8-pentahydroquinoline-3-carboxylate] were 5.01% and 2.65%.
The corresponding values for `CCCCCOC(=O)C1=C(C)NC2=C(C(=O)CC(C)(C)C2)C1c1ccc(OC)cc1` (stereo not drawn) [ST216606, pentyl 4-(4-methoxyphenyl)-2,7,7-trimethyl-5-oxo-1,4,6,7,8-pentahydroquinoline-3-carboxylate] are 9.56% and 1.4%.
As for `CC1=C(C(=O)OCc2ccccc2)C(c2ccccc2Br)C2=C(CC(C)(C)CC2=O)N1` (stereo not drawn) [ST216854, phenylmethyl 4-(2-bromophenyl)-2,7,7-trimethyl-5-oxo-1,4,6,7,8-pentahydroquinoline-3-carboxylate], the activity at 5 µM with Aβ1-42 came to 60%; with Aβ1-40, 29.4%.
As to `CC1=C(C(=O)OCc2ccccc2)C(c2ccccc2I)C2=C(CC(C)(C)CC2=O)N1` (stereo not drawn) [ST216858, phenylmethyl 4-(2-iodophenyl)-2,7,7-trimethyl-5-oxo-1,4,6,7,8-pentahydroquinoline-3-carboxylate], the activity at 5 µM in the experiment on Aβ1-42 came out at 61.5%; in the experiment with Aβ1-40 it was 30.1%.
As for `COC(=O)C1=C(C)NC2=C(C(=O)CC(C)(C)C2)C1c1ccc(-c2ccccc2)cc1` (stereo not drawn) [ST216875, methyl 2,7,7-trimethyl-5-oxo-4-(4-phenylphenyl)-1,4,6,7,8-pentahydroquinoline-3-carboxylate], the activity at 5 µM in the experiment with Aβ1-42 was determined as 33%; with Aβ1-40 it was 14.2%.
The corresponding values for `CC1=C(C(=O)OC2CCCCC2)C(c2ccc3c(c2)OCO3)C2=C(CC(C)(C)CC2=O)N1` (stereo not drawn) [ST216920, cyclohexyl 4-(2H-benzo[3,4-d]1,3-dioxolen-5-yl)-2,7,7-trimethyl-5-oxo-1,4,6,7,8-pentahydroquinoline-3-carboxylate] are 3.82% and 1.4%.
Consider `CC1=C(C(=O)Nc2ccccc2)C(c2c(Cl)cccc2Cl)C(C(=O)Nc2ccccc2)=C(C)N1` [ST217080, [4-(2,6-dichlorophenyl)-2,6-dimethyl-5-(N-phenylcarbamoyl)(3-1,4-dihydropyridyl)]-N-benzamide], for which the “Aβ1-42 (% of control)” value with Aβ1-42 (setting [1]) is 0 % of control. In addition, the “Aβ1-40 (% of control)” value in the experiment on Aβ1-40 (setting [1]) is 65.54 % of control.
As for `CCCCCOC(=O)C1=C(C)NC2=C(C(=O)CC(C)(C)C2)C1c1ccc(OCCC)cc1` (stereo not drawn) [ST217244, pentyl 2,7,7-trimethyl-5-oxo-4-(4-propoxyphenyl)-1,4,6,7,8-pentahydroquinoline-3-carboxylate], the activity at 5 µM in the experiment on Aβ1-42 was found to be 41.5%; in the experiment on Aβ1-40, 24.9%.
